Holding throughout (assay type): functional, cell-based
One assay has as its system 769-P. Put plainly: Anticancer activity against human 769-P cells by MTT assay. Background: Tetrazolium assays rely on reduction of a dye to a coloured formazan, in cell work by metabolically active cells.
The test system of assay [1] is MDA-MB-231. Put plainly: Anticancer activity against human MDA-MB-231 cells by MTT assay.
The test system of a further assay is HepG2. Put plainly: Anticancer activity against human HepG2 cells by MTT assay.
Assay [2] deals with MCF7. In words: Cytotoxicity against human MCF7 cells assessed as reduction in cell viability after 48 hrs by MTT assay. The note with it: MCF7, 48 h.
Assay [3] relates to MCF7. In words: Cytotoxicity against human MCF7 cells assessed as reduction in cell viability after 68 hrs by MTT assay. Conditions: MCF7, 68 h.
The next assay has as its system HeLa. Put plainly: Cytotoxicity against human HeLa cells assessed as reduction in cell viability after 68 hrs by MTT assay.
The subject of assay [4] is A549. In words: Cytotoxicity against human A549 cells assessed as reduction in cell viability after 68 hrs by MTT assay. Conditions: A549, 68 h.
Another assay deals with K562. Put plainly: Cytotoxicity against human K562 cells assessed as reduction in cell viability after 68 hrs by MTT assay. Conditions: K562, 68 h.
The test system of assay [5] is A549. Put plainly: Cytotoxicity against human A549 cells assessed as reduction in cell viability after 24 hrs by MTT assay. Conditions: A549, 24 h.
Assay [6] has as its system MDA-MB-231. Put plainly: Cytotoxicity against human MDA-MB-231 cells assessed as reduction in cell viability after 24 hrs by MTT assay.
For assay [7], the system named is A549. In words: Anticancer activity against human A549 cells by MTT assay.

The record followed here is ChEMBL document CHEMBL4373717, “Coumarin-containing hybrids and their anticancer activities” (Eur J Med Chem, 2019).

Usually IC50 stands for the point on the concentration scale where inhibition reaches its midpoint.

The structures appear in SMILES notation.

On to `O=c1ccc2ccc(OCCCCCCCCCCn3cc(COc4ccc5ccc(=O)oc5c4)nn3)cc2o1`, for which the IC50 with 769-P, in the assay on MDA-MB-231 [1] and in the assay on HepG2 was 383 to 13600 nM throughout.
Turning to `Cc1cc(-c2cc3ccccc3oc2=O)n(-c2nc(-c3ccccc3)cs2)n1`, in the assay with MCF7 [2], the IC50 lay within 4030 to 31500 nM.
Regarding `COc1ccc(OC)c(NC(=O)Nc2ccc(Cc3c(C)c4cc(C(C)(C)C)c(O)cc4oc3=O)cn2)c1`, the IC50 in the assay with MCF7 [3], with HeLa, in the assay with A549 [4] and in the assay with K562 was 1660 to 19400 nM throughout.
Regarding `O=c1oc2ccccc2cc1-c1cc(-c2ccc(Cl)cc2)nc(Cc2ccc(F)cc2)n1`, the IC50 with A549 [5] is 2510 nM; in the assay on MDA-MB-231 [6] (Homo sapiens, MDA-MB-231, 24 h), 2510 nM.
Take `CC(=O)c1ccc(NC(=O)Nc2ccc(Cc3c(C)c4cc(C(C)(C)C)c(O)cc4oc3=O)cn2)cc1`: the IC50 with MCF7 [3], in the assay on HeLa, with A549 [4] and in the assay on K562 was 1660 to 19400 nM throughout.
In the case of `Cc1ccccc1NC(=O)c1ccc(-n2cc(COc3cc(=O)oc4ccccc34)nn2)cc1`, the IC50 with MDA-MB-231 [6] (mda-mb-231) lay in the range of 30 to 91600 nM.
On to `Cc1cc(-c2cc3ccccc3oc2=O)n(-c2nc(-c3ccc(Br)cc3)cs2)n1`, for which the IC50 in the assay on MCF7 [2] is 4030 to 31500 nM.
`O=C(Nc1ccc(F)c(Cl)c1)c1ccc(-n2cc(COc3cc(=O)oc4ccccc34)nn2)cc1`: in the assay on MDA-MB-231 [6] (mda-mb-231), the IC50 was in the range of 30 to 91600 nM.
Take `O=c1ccc2ccc(OCCCCn3cc(COc4ccc5ccc(=O)oc5c4)nn3)cc2o1`: the half-maximal inhibitory concentration (IC50) in the assay with 769-P, with MDA-MB-231 [1] and with HepG2 was 383 to 13600 nM each time.
In the case of `Cc1c(Cc2ccc(NC(=O)Nc3ccccc3)nc2)c(=O)oc2cc(O)c(C(C)(C)C)cc12`, the IC50 in the assay with MCF7 [3], in the assay on HeLa, in the assay on A549 [4] and with K562 was 1660 to 19400 nM throughout.
As for `Cc1cc(-c2cc3cc(Cl)ccc3oc2=O)n(-c2nc(-c3ccccc3)cs2)n1`, the IC50 in the assay with MCF7 [2] lay in the range of 4030 to 31500 nM.
As to `COc1ccc(NC(=O)c2ccc(-n3cc(COc4cc(=O)oc5ccccc45)nn3)cc2)cc1`, the IC50 in the assay on MDA-MB-231 [6] (mda-mb-231) lay within 30 to 91600 nM.
On to `Cc1cc(=O)oc2cc(OCc3cn(CCOc4ccc5ccc(=O)oc5c4)nn3)ccc12`, for which the IC50 in the assay on 769-P, with MDA-MB-231 [1] and in the assay with HepG2 was 383 to 13600 nM in each case.
For `Cc1cc(=O)oc2cc(OCc3cn(CCCCCCCCCCCCOc4ccc5ccc(=O)oc5c4)nn3)ccc12`, the IC50 in the assay with 769-P, with MDA-MB-231 [1] and with HepG2 was 383 to 13600 nM each time.
Consider `Cc1cc(-c2cc3cc(Br)ccc3oc2=O)n(-c2nc(-c3ccc(Br)cc3)cs2)n1`, for which the IC50 with MCF7 [2] lay in the range of 4030 to 31500 nM.
Regarding `O=c1ccc2ccc(OCCCCCCCn3cc(COc4ccc5ccc(=O)oc5c4)nn3)cc2o1`, the IC50 with 769-P, with MDA-MB-231 [1] and in the assay on HepG2 was 383 to 13600 nM throughout.
Turning to `O=c1ccc2ccc(OCCCCCCCCCn3cc(COc4ccc5ccc(=O)oc5c4)nn3)cc2o1`, the IC50 in the assay with 769-P, with MDA-MB-231 [1] and with HepG2 was 383 to 13600 nM in each case.
As for `O=c1ccc2ccc(OCCCCCCCCCCCCn3cc(COc4ccc5ccc(=O)oc5c4)nn3)cc2o1`, the IC50 with 769-P, with MDA-MB-231 [1] and in the assay with HepG2 was 383 to 13600 nM throughout.
`Cc1cc(=O)oc2cc(OCc3cn(CCCCCCCOc4ccc5ccc(=O)oc5c4)nn3)ccc12`: the IC50 in the assay on 769-P, in the assay on MDA-MB-231 [1] and with HepG2 was 383 to 13600 nM each time.
With `O=C(Nc1ccccc1Br)c1ccc(-n2cc(COc3cc(=O)oc4ccccc34)nn2)cc1`, the IC50 in the assay with MDA-MB-231 [6] (mda-mb-231) was 30 to 91600 nM.
With `Cc1ccc(NC(=O)c2ccc(-n3cc(COc4cc(=O)oc5ccccc45)nn3)cc2)c(C)c1`, in the assay with MDA-MB-231 [6] (mda-mb-231), the IC50 was 30 to 91600 nM.
`Cc1ccc2c(C3C4=C(CCCC4=O)OC3c3cc(=O)oc4ccc(C)cc34)cc(=O)oc2c1` (centres undefined) showed an IC50 in the assay with A549 [7] of 420 to 430 nM.
Regarding `O=C(Nc1ccc(Br)cc1)c1ccc(-n2cc(COc3cc(=O)oc4ccccc34)nn2)cc1`, in the assay on MDA-MB-231 [6] (mda-mb-231), the IC50 is 30 to 91600 nM.
With `COc1cccc(-c2cc(-c3cc4ccccc4oc3=O)nc(Cc3ccc(F)cc3)n2)c1`, the IC50 in the assay on A549 [5] was in the range of 2150 to 28600 nM; in the assay with MDA-MB-231 [6] (Homo sapiens, MDA-MB-231, 24 h), 2150 to 28600 nM.
`Cc1cc(-c2cc3cc(Cl)ccc3oc2=O)n(-c2nc(-c3ccc(Br)cc3)cs2)n1`: the IC50 in the assay on MCF7 [2] is 4030 to 31500 nM.
For `Cc1c(Cl)cccc1NC(=O)c1ccc(-n2cc(COc3cc(=O)oc4ccccc34)nn2)cc1`, in the assay on MDA-MB-231 [6] (mda-mb-231), the IC50 is 30 to 91600 nM.
In turn, `Cc1ccc2oc(=O)cc(C3OC4=C(C(=O)CCC4)C3c3cc(=O)oc4ccc(C)cc34)c2c1` (centres undefined) came in with an IC50 in the assay on A549 [7] of 420 to 430 nM.
Regarding `CC(=O)O[C@H]1C(=O)[C@@]2(C)[C@H]([C@H](OC(=O)c3ccccc3)[C@]3(O)C[C@H](OC(=O)[C@H](O)[C@@H](NC(=O)c4ccccc4)c4ccccc4)C(C)=C1C3(C)C)[C@]1(OC(C)=O)CO[C@@H]1C[C@@H]2O` [PACLITAXEL], the IC50 in the assay on MCF7 [3] was 3.3 to 14 nM; with HeLa, 3.3 to 14 nM; in the assay with A549 [7] it was 350 nM; with A549 [4], 3.3 to 14 nM; in the assay on K562, 3.3 to 14 nM.
